{
  "source": "patent US20220280661A1",
  "about": "“GLUCOCORTICOID RECEPTOR RADIOLIGANDS AND METHODS FOR THEIR PREPARATION AND USE” (The Regents of the University of California, priority 2019, published 2022)",
  "key": {"ER": {"target": "T1, ER (Homo sapiens, UniProt P03372)", "T1 construct": "MCF7 (PR, ER); endogenous in cells; host or cells: MCF7", "T1 sequence (P03372 1-595)": "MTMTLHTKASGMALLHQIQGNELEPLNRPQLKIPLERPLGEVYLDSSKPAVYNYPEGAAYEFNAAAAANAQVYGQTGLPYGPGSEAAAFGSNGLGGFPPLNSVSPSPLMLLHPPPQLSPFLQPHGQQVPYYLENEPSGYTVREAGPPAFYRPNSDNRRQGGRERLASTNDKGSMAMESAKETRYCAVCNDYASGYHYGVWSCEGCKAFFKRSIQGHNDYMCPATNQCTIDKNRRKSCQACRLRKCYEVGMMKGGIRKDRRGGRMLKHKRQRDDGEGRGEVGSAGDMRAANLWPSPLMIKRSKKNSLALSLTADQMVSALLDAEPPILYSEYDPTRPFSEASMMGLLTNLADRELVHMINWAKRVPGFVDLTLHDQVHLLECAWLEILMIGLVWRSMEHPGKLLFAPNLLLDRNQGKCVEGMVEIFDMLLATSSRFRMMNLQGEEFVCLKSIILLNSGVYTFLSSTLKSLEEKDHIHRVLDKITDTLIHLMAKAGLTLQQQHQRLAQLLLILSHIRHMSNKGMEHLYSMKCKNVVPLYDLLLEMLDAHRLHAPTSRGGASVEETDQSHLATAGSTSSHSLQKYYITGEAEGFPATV", "experiment": "3H-ligand displacement assay on cells, ER (MCF7)", "assay_type": "binding", "method": "The affinity of YJH08 for GR and the other type 1 subfamily 3 nuclear hormone receptors was evaluated using ^3H-ligand displacement assays on cells. The Kd for subfamily 3 class C nuclear hormone receptors was determined on cells by displacing ^3H-steroidal agonists for the respective receptor. […] The Kd was determined using the following cell lines: DU145 (GR), LNCaP-AR (AR), MCF7 (PR, ER), and HEK293 transiently overexpressing full length human MR.\nThe cold ligands and ^3H-steroids were co-incubated on cells in PBS at room temperature for one hour. Following incubation, the cells were washed twice with ice cold PBS and the unbound activity was retained for analysis. The cells were lysed with 1 mL of 1M NaOH and collected. Bound and unbound fractions were counted in a liquid scintillation counter and expressed as a percentage of the total activity added per equal relative number of cells. […] These experiments were performed at three concentrations of experimental ligand (1 pM, 100 nM and 10 μM), and a linear extrapolation was used to subtract the non-specific component of binding from each treatment condition. The specific binding component was plotted against the log of the competing ligand and curve fit using a non-linear regression algorithm with PRISM software."}, "GR": {"target": "T2, GR (Mus musculus, UniProt P06537)", "T2 construct": "from tissue; host or cells: tissues of C57BL6/J mice (intact or adrenalectomized), in vivo", "T2 sequence (P06537 1-792)": "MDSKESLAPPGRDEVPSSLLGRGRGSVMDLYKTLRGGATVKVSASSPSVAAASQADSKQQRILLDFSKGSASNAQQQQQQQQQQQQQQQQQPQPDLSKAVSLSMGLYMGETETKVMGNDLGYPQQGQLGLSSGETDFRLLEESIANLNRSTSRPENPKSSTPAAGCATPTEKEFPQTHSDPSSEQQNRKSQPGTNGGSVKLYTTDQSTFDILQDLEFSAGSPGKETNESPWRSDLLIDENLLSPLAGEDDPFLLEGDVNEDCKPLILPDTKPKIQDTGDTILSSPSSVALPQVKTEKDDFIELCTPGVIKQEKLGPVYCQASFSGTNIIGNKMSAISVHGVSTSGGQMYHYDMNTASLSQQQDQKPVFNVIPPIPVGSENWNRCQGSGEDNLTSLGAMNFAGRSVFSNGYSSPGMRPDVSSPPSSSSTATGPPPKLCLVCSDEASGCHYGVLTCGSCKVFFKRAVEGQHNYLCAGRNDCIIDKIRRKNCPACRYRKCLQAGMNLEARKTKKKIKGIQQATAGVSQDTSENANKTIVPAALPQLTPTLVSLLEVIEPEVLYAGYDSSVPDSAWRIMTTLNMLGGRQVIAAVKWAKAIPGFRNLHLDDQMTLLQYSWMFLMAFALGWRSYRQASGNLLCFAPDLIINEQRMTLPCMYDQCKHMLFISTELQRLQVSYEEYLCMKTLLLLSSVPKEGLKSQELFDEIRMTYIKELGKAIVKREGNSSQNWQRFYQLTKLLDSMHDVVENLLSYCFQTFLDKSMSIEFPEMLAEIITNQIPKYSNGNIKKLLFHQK", "experiment": "[18F]-YJH08 biodistribution, dexamethasone treatment study", "assay_type": "in vivo", "conditions": "20 min after injection", "method": "All animal experiments were conducted under the approval from Institutional Animal Care and Use Committee (IACUC) at UCSF. Male nu nu or C57BL6/J mice (4-6 weeks) purchased from Charles River. All the mice were well-housed in the USCF with free access to food and water. […] The mice were treated once daily for three days. At day 3, the mice received the radiotracer after the final gavage. Adrenalectomized mice were purchased from Charles River, and provided drinking water supplemented with NaCl (aq) per instructions.\nFor a broader survey of radiotracer biodistribution post mortem, mice were euthanized after radiotracer injection with CO2(g) asphyxiation and dissected at dedicated time points post injection. The blood and tissues were removed, washed, dried and weighed. The activity of each tissue was measured with a gamma counter. All data was decay corrected. PRISM software was used to express a percentage (% ID/g) of the injected dose per gram of tissue. […] The data are represented as mean standard deviation of the % ID/g. […]\nThe data are presented as a mean±standard deviation of the % ID/g. […] The P value indicates the result of an unpaired, two-tailed Student's t test."}, "[1]": {"conditions": "mice given dexamethasone 100 mg/kg oral gavage once daily for three days"}, "[2]": {"conditions": "mice given vehicle by oral gavage once daily for three days"}},
  "data": [
    {"smiles": "COc1cccc2c1-c1ccc3c(c1C(Cc1ccc(F)cc1)O2)C(C)=CC(C)(C)N3", "note": "(racemic) [YJH08, 5-(4-fluorobenzyl)-10-methoxy-2,2,4-trimethyl-2,5-dihydro-1H-chromeno[3,4-f]quinoline]", "values": [
      {"measurement": "Kd", "setting": "ER", "result": 19, "unit": "µM"}
    ]},
    {"smiles": "COc1cccc2c1-c1ccc3c(c1C(Cc1ccc([18F])cc1)O2)C(C)=CC(C)(C)N3", "note": "(racemic) [[18F]-YJH08, [^18F]-5-(4-fluorobenzyl)-10-methoxy-2,2,4-trimethyl-2,5-dihydro-1H-chromeno[3,4-f]quinoline]", "values": [
      {"measurement": "radiotracer uptake, Adrenal Gland", "setting": "GR; [1]", "result": "10.40 ± 0.7", "unit": "% ID/g"},
      {"measurement": "radiotracer uptake, Blood", "setting": "GR; [1]", "result": "2.95 ± 0.2", "unit": "% ID/g"},
      {"measurement": "radiotracer uptake, Bone", "setting": "GR; [1]", "result": "1.25 ± 0.2", "unit": "% ID/g"},
      {"measurement": "radiotracer uptake, Brain", "setting": "GR; [1]", "result": "1.31 ± 0.07", "unit": "% ID/g"},
      {"measurement": "radiotracer uptake, Heart", "setting": "GR; [1]", "result": "7.57 ± 0.9", "unit": "% ID/g"},
      {"measurement": "radiotracer uptake, Kidney", "setting": "GR; [1]", "result": "3.75 ± 0.5", "unit": "% ID/g"},
      {"measurement": "radiotracer uptake, Large intestine", "setting": "GR; [1]", "result": "1.77 ± 0.5", "unit": "% ID/g"},
      {"measurement": "radiotracer uptake, Liver", "setting": "GR; [1]", "result": "11.43 ± 2.1", "unit": "% ID/g"},
      {"measurement": "radiotracer uptake, Lung", "setting": "GR; [1]", "result": "3.92 ± 0.3", "unit": "% ID/g"},
      {"measurement": "radiotracer uptake, Muscle", "setting": "GR; [1]", "result": "1.71 ± 0.1", "unit": "% ID/g"},
      {"measurement": "radiotracer uptake, Pancreas", "setting": "GR; [1]", "result": "3.33 ± 0.1", "unit": "% ID/g"},
      {"measurement": "radiotracer uptake, Small intestine", "setting": "GR; [1]", "result": "34.43 ± 7.2", "unit": "% ID/g"},
      {"measurement": "radiotracer uptake, Spleen", "setting": "GR; [1]", "result": "4.23 ± 0.3", "unit": "% ID/g"},
      {"measurement": "radiotracer uptake, Stomach", "setting": "GR; [1]", "result": "0.48 ± 0.4", "unit": "% ID/g"},
      {"measurement": "radiotracer uptake, Supraspinal BAT", "setting": "GR; [1]", "result": "4.69 ± 0.7", "unit": "% ID/g"},
      {"measurement": "radiotracer uptake, Adrenal Gland", "setting": "GR; [2]", "result": "17.29 ± 6.7", "unit": "% ID/g"},
      {"measurement": "radiotracer uptake, Blood", "setting": "GR; [2]", "result": "3.98 ± 0.08", "unit": "% ID/g"},
      {"measurement": "radiotracer uptake, Bone", "setting": "GR; [2]", "result": "2.17 ± 0.2", "unit": "% ID/g"},
      {"measurement": "radiotracer uptake, Brain", "setting": "GR; [2]", "result": "2.05 ± 0.03", "unit": "% ID/g"},
      {"measurement": "radiotracer uptake, Heart", "setting": "GR; [2]", "result": "10.66 ± 0.4", "unit": "% ID/g"},
      {"measurement": "radiotracer uptake, Kidney", "setting": "GR; [2]", "result": "8.49 ± 1.3", "unit": "% ID/g"},
      {"measurement": "radiotracer uptake, Large intestine", "setting": "GR; [2]", "result": "1.57 ± 0.4", "unit": "% ID/g"},
      {"measurement": "radiotracer uptake, Liver", "setting": "GR; [2]", "result": "18.46 ± 2.9", "unit": "% ID/g"},
      {"measurement": "radiotracer uptake, Lung", "setting": "GR; [2]", "result": "6.26 ± 0.4", "unit": "% ID/g"},
      {"measurement": "radiotracer uptake, Muscle", "setting": "GR; [2]", "result": "2.46 ± 0.2", "unit": "% ID/g"},
      {"measurement": "radiotracer uptake, Pancreas", "setting": "GR; [2]", "result": "6.22 ± 1.6", "unit": "% ID/g"},
      {"measurement": "radiotracer uptake, Small intestine", "setting": "GR; [2]", "result": "19.12 ± 5.7", "unit": "% ID/g"},
      {"measurement": "radiotracer uptake, Spleen", "setting": "GR; [2]", "result": "3.79 ± 0.4", "unit": "% ID/g"},
      {"measurement": "radiotracer uptake, Stomach", "setting": "GR; [2]", "result": "1.74 ± 0.8", "unit": "% ID/g"},
      {"measurement": "radiotracer uptake, Supraspinal BAT", "setting": "GR; [2]", "result": "10.52 ± 2.9", "unit": "% ID/g"}
    ]}
  ]
}
